Target: T1, METTL3 (Homo sapiens, UniProt Q86U44)
T1 construct: METTL3-METTL14 complex (wild type); with METTL14
Assay: in vitro methyltransferase assay with omission of components, m6A by LC-MS/MS
Assay type: biochemical
From the text: in vitro methyltransferase assay with omission of components, m6A by LC-MS/MS on METTL3 | METTL[…]TL14 (wild type), SAM, and RNA are essential for m^6A formation

T1 sequence (Q86U44 2-580): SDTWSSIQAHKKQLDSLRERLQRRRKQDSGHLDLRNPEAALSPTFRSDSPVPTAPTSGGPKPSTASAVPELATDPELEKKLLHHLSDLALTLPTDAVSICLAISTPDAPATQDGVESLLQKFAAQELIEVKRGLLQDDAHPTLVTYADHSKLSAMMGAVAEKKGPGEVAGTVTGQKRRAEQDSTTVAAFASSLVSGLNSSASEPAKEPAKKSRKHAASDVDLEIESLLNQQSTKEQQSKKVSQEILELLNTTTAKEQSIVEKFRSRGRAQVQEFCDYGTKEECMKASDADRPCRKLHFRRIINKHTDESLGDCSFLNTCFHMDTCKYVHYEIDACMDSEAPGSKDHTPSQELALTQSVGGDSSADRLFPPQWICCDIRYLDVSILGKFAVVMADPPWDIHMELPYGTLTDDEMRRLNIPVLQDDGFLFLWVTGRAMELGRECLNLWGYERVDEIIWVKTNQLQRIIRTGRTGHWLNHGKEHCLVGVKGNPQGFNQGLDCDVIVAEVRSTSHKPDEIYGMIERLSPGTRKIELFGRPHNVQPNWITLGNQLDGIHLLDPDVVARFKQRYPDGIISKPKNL
T1 sequence (Q9HCE5 whole entry partner): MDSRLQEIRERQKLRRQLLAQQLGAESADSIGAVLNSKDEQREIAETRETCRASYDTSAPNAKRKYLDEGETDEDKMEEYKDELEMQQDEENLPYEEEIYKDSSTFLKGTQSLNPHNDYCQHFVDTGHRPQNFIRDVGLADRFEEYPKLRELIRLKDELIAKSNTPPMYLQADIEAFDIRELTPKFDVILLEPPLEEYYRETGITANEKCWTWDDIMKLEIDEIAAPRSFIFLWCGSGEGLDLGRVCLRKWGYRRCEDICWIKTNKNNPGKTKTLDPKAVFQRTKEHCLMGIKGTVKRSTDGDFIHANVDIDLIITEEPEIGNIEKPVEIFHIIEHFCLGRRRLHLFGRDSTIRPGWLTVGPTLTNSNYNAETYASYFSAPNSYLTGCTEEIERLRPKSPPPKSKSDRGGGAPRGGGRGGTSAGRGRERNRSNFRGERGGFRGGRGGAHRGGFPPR

In the case of `C[S+](CC[C@H](N)C(=O)[O-])C[C@H]1O[C@@H](n2cnc3c(N)ncnc32)[C@H](O)[C@@H]1O` (stereo partly shown) [SAM], the “components essential for m6A formation” value is reported as “METTL3-METTL14 (wild type), SAM, and RNA are essential for m^6A formation”.

Source: publication PMC9093036, “Discovery of METTL3 Small Molecule Inhibitors by Virtual Screening of Natural Products” (Frontiers in Pharmacology, 2022)
